According to patent US8507539B2, “Potassium channel blockers and uses thereof” (Bionomics Limited, priority 2008, dated 2013):

Target: hKv1.3 (Homo sapiens, UniProt P22001)
Assay: Whole-cell patch-clamp block of Kv1.3 current in CHO cells stably expressing hKv1.3
Format: cell-based
Settings: CHO cells stably expressing hKv1.3, whole-cell patch clamp; reported as ranges; read-out: IC50 (Kv1.3)
Protocol: The effectiveness of the generated compounds in blocking the Kv1.3 current was assayed on CHO cells stably expressing hKv1.3. Cells were grown in F12 Kaighns' medium supplemented with 10% fetal calf serum, 2 mM L-glutamine, 1 mM Na^+ pyruvate, 100 units/ml penicillin, 100 Fg/ml streptomycin and 500 μg/ml G418 (to keep them under selection pressure). Kv1.3 currents were measured using the whole-cell configuration of the patch-clamp technique and were evoked by 500 ms depolarising voltage pulses to +40 mV from a holding potential of −80 mV at 30 sec intervals. Cells were continuously bathed in Ringers solution containing (mM): 160 NaCl, 4.5 KCl, 2.5 CaCl2, 1 MgCl2, 10 HEPES, pH 7.4, 290-310 mOsm. The internal (pipette) solution contained (mM): 134 KF, 2 MgCl2, 10 HEPES, 10 EGTA (pH 7.2, 290-310 mOsm). Series resistance compensation (60-80%) was applied when the peak current amplitude exceeded 2 nA. Compounds initially dissolved in DMSO were diluted in bath solution (final DMSO concentration 0.5%) and applied directly to the recording chamber at increasing concentrations allowing ample time for steady state block to be achieved between each concentration. Each compound was tested at 4-5 different concentrations in triplicate. IC50 values were determined by fitting the average normalised reduction of the current integral to the Hill equation.

hKv1.3, sequence (P22001 whole entry): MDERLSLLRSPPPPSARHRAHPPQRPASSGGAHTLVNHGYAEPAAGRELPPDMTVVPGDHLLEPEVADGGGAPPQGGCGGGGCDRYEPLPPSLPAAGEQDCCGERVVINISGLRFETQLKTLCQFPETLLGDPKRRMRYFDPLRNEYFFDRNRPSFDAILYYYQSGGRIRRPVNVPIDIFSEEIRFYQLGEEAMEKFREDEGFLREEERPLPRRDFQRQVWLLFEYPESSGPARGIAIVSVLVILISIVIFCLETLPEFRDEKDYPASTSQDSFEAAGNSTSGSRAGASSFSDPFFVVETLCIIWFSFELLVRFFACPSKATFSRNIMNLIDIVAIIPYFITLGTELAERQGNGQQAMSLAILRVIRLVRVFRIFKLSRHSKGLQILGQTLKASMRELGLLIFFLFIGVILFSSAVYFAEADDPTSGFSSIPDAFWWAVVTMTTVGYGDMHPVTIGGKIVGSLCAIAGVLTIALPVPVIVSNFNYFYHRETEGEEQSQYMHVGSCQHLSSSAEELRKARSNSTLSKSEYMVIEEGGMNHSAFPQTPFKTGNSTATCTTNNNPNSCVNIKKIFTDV

Structure (SMILES) | IC50 [nM]
CC(=O)c1c(OCCN2CCOCC2)c(OCCCc2ccccc2)c2ocnc2c1C [Example 1i, 5-Acetyl-4-methyl-6-(2-morpholinoethoxy)-7-(3-phenylpropoxy)-benzo[d]oxazole] | 50 to 200
CC(=O)c1c(OCCN2CCOCC2)c(OCCC(C)c2ccc(F)cc2)c2ocnc2c1C (stereo not drawn) [Example 2d, 5-Acetyl-7-[3-(4-fluorophenyl)butoxy]-4-methyl-6-(2-morpholin-4-yl-ethoxy)benzooxazole] | < 50
CC(=O)c1c(OCCc2ccccn2)c(OCCC(C)c2ccc(F)cc2)c2ocnc2c1C (stereo not drawn) [Example 3, 5-Acetyl-7-[3-(4-fluorophenyl)butoxy]-4-methyl-6-(2-pyridin-2-yl-ethoxy)benzooxazole] | < 50
CC(=O)c1c(OCCN(C)C)c(OCCC(C)c2ccc(F)cc2)c2ocnc2c1C (stereo not drawn) [Example 4b, 5-Acetyl-7-[3-(4-fluorophenyl)butoxy]-4-methyl-6-(2-N,N-dimethylamino-ethoxy)benzooxazole] | 200 to 1000
CC(=O)c1c(OCCn2ccnc2)c(OCCC(C)c2ccc(F)cc2)c2ocnc2c1C (stereo not drawn) [Example 5, 5-Acetyl-7-[3-(4-fluorophenyl)butoxy]-4-methyl-6-(2-N-imidazolyl-ethoxy)benzooxazole] | < 50
CC(=O)c1c(OCCN2CCOCC2)c(OCCC(C)c2ccc(F)cc2)c2oc(C)nc2c1C (stereo not drawn) [Example 6c, 5-Acetyl-7-[3-(4-fluorophenyl)butoxy]-2,4-dimethyl-6-(2-morpholin-4-yl-ethoxy)-benzooxazole] | < 50
CC(=O)c1c(OCCN(C)C)c(OCCC(C)c2ccc(F)cc2)c2oc(C)nc2c1C (stereo not drawn) [Example 7, 5-Acetyl-6-(2-dimethylaminoethoxy)-7-[3-(4-fluorophenyl)butoxy]-2,4-dimethyl-benzooxazole] | 200 to 1000
CC(=O)c1c(OCCc2ccccn2)c(OCCC(C)c2ccc(F)cc2)c2oc(C)nc2c1C (stereo not drawn) [Example 8, 5-Acetyl-7-[3-(4-fluorophenyl)butoxy]-2,4-dimethyl-6-(2-pyridin-2-yl-ethoxy)-benzooxazole] | < 50
CC(=O)c1c(OCCc2cccc[n+]2[O-])c(OCCC(C)c2ccc(F)cc2)c2oc(C)nc2c1C (stereo not drawn) [Example 9, 2-(2-(5-acetyl-7-(3-(4-fluorophenyl)butoxy)-2,4-dimethylbenzo[d]oxazol-6-yloxy)ethyl)pyridine 1-oxide] | 200 to 1000
CC(=O)c1c(OCCn2ccnc2)c(OCCC(C)c2ccc(F)cc2)c2oc(C)nc2c1C (stereo not drawn) [Example 10b, 5-Acetyl-7-[3-(4-fluorophenyl)butoxy]-6-(2-imidazol-1-yl-ethoxy)-2,4-dimethyl-benzooxazole] | 50 to 200
CC(=O)c1c(OCCn2nnc(N)n2)c(OCCC(C)c2ccc(F)cc2)c2oc(C)nc2c1C (stereo not drawn) [Example 11a, 5-Acetyl-6-[2-(5-aminotetrazol-2-yl)-ethoxy]-7-[3-(4-fluorophenyl)butoxy]-2,4-dimethyl-benzooxazole] | < 50
CC(=O)c1c(OCCn2nnnc2N)c(OCCC(C)c2ccc(F)cc2)c2oc(C)nc2c1C (stereo not drawn) [Example 11b, 5-Acetyl-6-[2-(5-amino-tetrazol-1-yl)-ethoxy]-7-[3-(4-fluorophenyl)butoxy]-2,4-dimethyl-benzooxazole] | 50 to 200
CC(=O)c1c(OCCN2CCC(=O)CC2)c(OCCC(C)c2ccc(F)cc2)c2oc(C)nc2c1C (stereo not drawn) [Example 12, 1-(2-{5-Acetyl-7-[3-(4-fluorophenyl)butoxy]-2,4-dimethyl-benzooxazol-6-yloxy}-ethyl)-piperidin-4-one] | 50 to 200
CC(=O)c1c(OCCN2CC[S+]([O-])CC2)c(OCCC(C)c2ccc(F)cc2)c2oc(C)nc2c1C (stereo not drawn) [Example 14, 5-Acetyl-7-[3-(4-fluorophenyl)butoxy]-2,4-dimethyl-6-[2-(1-oxo-thiomorpholin-4-yl)-ethoxy]-benzooxazole] | 50 to 200
CC(=O)c1c(OCCN2CCS(=O)(=O)CC2)c(OCCC(C)c2ccc(F)cc2)c2oc(C)nc2c1C (stereo not drawn) [Example 15, 5-Acetyl-6-[2-(1,1-dioxo-thiomorpholin-4-yl)-ethoxy]-7-[3-(4-fluorophenyl)butoxy]-2,4-dimethyl-benzooxazole] | < 50
CC(=O)c1c(OCCn2ccnc2C)c(OCCC(C)c2ccc(F)cc2)c2oc(C)nc2c1C (stereo not drawn) [Example 16, 5-Acetyl-7-[3-(4-fluorophenyl)butoxy]-2,4-dimethyl-6-[2-(2-methylimidazol-1-yl)-ethoxy]-benzooxazole] | 50 to 200
CC(=O)c1c(OCCN2CCC(C)(O)CC2)c(OCCC(C)c2ccc(F)cc2)c2oc(C)nc2c1C (stereo not drawn) [Example 19, 5-Acetyl-7-[3-(4-fluorophenyl)butoxy]-6-[2-(4-hydroxy-4-methyl-piperidin-1-yl)-ethoxy]-2,4-dimethyl-benzooxazole] | 50 to 200

Structure (SMILES) | IC50 [nM]
CCN(CC)CCOc1c(C(C)=O)c(C)c2nc(C)oc2c1OCCC(C)c1ccc(F)cc1 (stereo not drawn) [Example 20, 5-Acetyl-6-(2-diethylamino-ethoxy)-7-[3-(4-fluorophenyl)butoxy]-2,4-dimethyl-benzooxazole] | 200 to 1000
CC(=O)c1c(OCC[n+]2ccc(N)cc2)c(OCCC(C)c2ccc(F)cc2)c2oc(C)nc2c1C (stereo not drawn) [Example 21, 5-Acetyl-6-(2-(4-aminopyridin-1-ium)ethoxy)-7-[3-(4-fluorophenyl)butoxy]-2,4-dimethyl-benzo[d]oxazole chloride] | > 1000
CC(=O)c1c(OCCN)c(OCCC(C)c2ccc(F)cc2)c2oc(C)nc2c1C (stereo not drawn) [Example 22, 5-Acetyl-6-(2-aminiumethoxy)-7-[3-(4-fluorophenyl)butoxy]-2,4-dimethyl-benzo[d]oxazole chloride] | 200 to 1000
CC(=O)c1c(OCCN=C(N(C)C)N(C)C)c(OCCC(C)c2ccc(F)cc2)c2oc(C)nc2c1C (stereo not drawn) [Example 23, 5-Acetyl-6-(2-(N,N,N′,N′-tetramethylguanidinium)ethoxy)-7-[3-(4-fluorophenyl)butoxy]-2,4-dimethyl-benzo[d]oxazole chloride] | 200 to 1000
CC(=O)c1c(OCCN2CCN(C)CC2)c(OCCC(C)c2ccc(F)cc2)c2oc(C)nc2c1C (stereo not drawn) [Example 25] | 200 to 1000
CC(=O)c1c(OCCNC(C)(C)C)c(OCCC(C)c2ccc(F)cc2)c2oc(C)nc2c1C (stereo not drawn) [Example 26, 5-Acetyl-6-(2-(N-tertbutylamino)ethoxy)-7-[3-(4-fluorophenyl)butoxy]-2,4-dimethyl-benzo[d]oxazole] | 200 to 1000
Cc1nc2c(C)c(C(C)O)c(OCCN3CCSCC3)c(OCCC(C)c3ccc(F)cc3)c2o1 (stereo not drawn) [Example 27, 4-(1-Hydroxyethyl)-7-[3-(4-fluorophenyl)butoxy]-2,4-dimethyl-6-(2-thiomorpholin-4-ylethoxy)-benzo[d]oxazole] | < 50
CC(=O)c1c(OCCN2CCOCC2)c(OCCC(C)c2ccc(F)cc2)c2oc(C(F)(F)F)nc2c1C (stereo not drawn) [Example 28c, 5-Acetyl-7-[3-(4-fluorophenyl)butoxy]-4-methyl-6-(2-morpholin-4-yl-ethoxy)-2-trifluoromethyl-benzooxazole] | 50 to 200
CC(=O)c1c(OCCc2ccccn2)c(OCCC(C)c2ccc(F)cc2)c2oc(C(F)(F)F)nc2c1C (stereo not drawn) [Example 29, 5-Acetyl-7-[3-(4-fluorophenyl)butoxy]-4-methyl-6-(2-pyridin-2-yl-ethoxy)-2-trifluoromethyl-benzo[d]oxazole] | 50 to 200
CC(=O)c1c(OCCN2CCOCC2)c(OCCC(C)c2ccc(F)cc2)c2oc(C(F)F)nc2c1C (stereo not drawn) [Example 30c, 5-Acetyl-7-[3-(4-fluorophenyl)butoxy]-6-(2-morphin-4-yl-ethoxy)-4-methyl-2-difluoromethyl-benzo[d]oxazole] | 50 to 200
CC(=O)c1c(OCCN2CCOCC2)c(OCCC(C)c2ccc(F)cc2)c2oc(C(C)C)nc2c1C (stereo not drawn) [Example 32c, 5-Acetyl-7-[3-(4-fluorophenyl)butoxy]-2-isopropyl-4-methyl-6-(2-morpholin-4-O-ethoxy)-benzo[d]oxazole] | < 50
CC(=O)c1c(OCCN2CCCC(F)(F)C2)c(OCCC(C)c2ccc(F)cc2)c2oc(C(C)C)nc2c1C (stereo not drawn) [Example 33b, 5-Acetyl-6-[2-(3,3-difluoropiperidin-1-yl)ethoxy]-7-[3-(4-fluorophenyl)butoxy]-2-isopropyl-4-methylbenzo[d]oxazole] | 50 to 200
CC(=O)c1c(OCCn2ccnc2C)c(OCCC(C)c2ccc(F)cc2)c2oc(C(C)C)nc2c1C (stereo not drawn) [Example 34, 5-Acetyl-7-[3-(4-fluorophenyl)butoxy]-2-isopropyl-1-4-methyl-6-[2-(2-methyl-1H-imidazol-1-yl)ethoxy]-benzo[d]oxazole] | 200 to 1000
CC(=O)c1c(OCCN2CCOCC2)c(OCCC(C)c2ccc(F)cc2)c2oc(C3CC3)nc2c1C (stereo not drawn) [Example 35d, 5-Acetyl-7-[3-(4-fluorophenyl)butoxy]-2-cyclopropyl-4-methyl-6-(2-morpholin-4-yl-ethoxy)-benzo[d]oxazole] | 50 to 200
CC(=O)c1c(OCCN2CCOCC2)c(OCCCc2ccccc2)c2oc(C)nc2c1Cl [Example 37j] | 200 to 1000
CC(=O)c1c(OCCN2CCOCC2)c(OCCC(C)c2ccc(F)cc2)c2oc(C)nc2c1Cl (stereo not drawn) [Example 38h, 5-Acetyl-4-chloro-7-(3-(4-fluorophenyl)butoxy)-6-(2-(morpholin-4-yl)ethoxy)-2-methyl-benzo[d]oxazole] | 50 to 200
